Measured values reported in the supplement of paper PMC10307832.

Experiments:
Test in all cases: relative viability (nuclei count vs DMSO), 5 days (fraction); higher = more cells survive
Bosutinib + Lapatinib = compound: COc1cc(Nc2c(C#N)cnc3cc(OCCCN4CCN(C)CC4)c(OC)cc23)c(Cl)cc1Cl [Bosutinib] + CS(=O)(=O)CCNCc1ccc(-c2ccc3ncnc(Nc4ccc(OCc5cccc(F)c5)c(Cl)c4)c3c2)o1 [Lapatinib] (partner 2 µM)
Method in brief: (§1)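 For relative viability, nuclei counts in treated wells were divided by those in vehicle wells. Lung cancer cell lines had been pin-tool dosed in 1536-well plates the day after seeding and cultured for 5 days, then fixed and stained in one step (final 0.05% Triton X-100, 1% formaldehyde, 1 ug/ml Hoechst) and imaged at 4×. Doses were one drug alone or a fixed anchor-drug dose plus five library-drug doses (not always all listed) in √10 steps, and values are duplicate-plate medians.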

Bosutinib + Pictilisib = compound: COc1cc(Nc2c(C#N)cnc3cc(OCCCN4CCN(C)CC4)c(OC)cc23)c(Cl)cc1Cl [Bosutinib] + CS(=O)(=O)N1CCN(Cc2cc3nc(-c4cccc5[nH]ncc45)nc(N4CCOCC4)c3s2)CC1 [Pictilisib] (partner 1 µM)
Method in brief: as §1

Bosutinib + Alpelisib = compound: COc1cc(Nc2c(C#N)cnc3cc(OCCCN4CCN(C)CC4)c(OC)cc23)c(Cl)cc1Cl [Bosutinib] + Cc1nc(NC(=O)N2CCC[C@H]2C(N)=O)sc1-c1ccnc(C(C)(C)C(F)(F)F)c1 [Alpelisib] (partner 2 µM)
Method in brief: as §1

Bosutinib + Dasatinib = compound: COc1cc(Nc2c(C#N)cnc3cc(OCCCN4CCN(C)CC4)c(OC)cc23)c(Cl)cc1Cl [Bosutinib] + Cc1nc(Nc2ncc(C(=O)Nc3c(C)cccc3Cl)s2)cc(N2CCN(CCO)CC2)n1 [Dasatinib] (partner 0.075 µM)
Method in brief: as §1

Bosutinib + Phenformin = compound: COc1cc(Nc2c(C#N)cnc3cc(OCCCN4CCN(C)CC4)c(OC)cc23)c(Cl)cc1Cl [Bosutinib] + N=C(N)NC(=N)NCCc1ccccc1 [Phenformin] (partner 250 µM)
Method in brief: as §1

Row | Cell Line | relative viability (Bosutinib + Lapatinib; first compound 0.01 µM) | relative viability (Bosutinib + Lapatinib; first compound 0.03162 µM) | relative viability (Bosutinib + Lapatinib; first compound 0.1 µM) | relative viability (Bosutinib + Lapatinib; first compound 1 µM) | relative viability (Bosutinib + Pictilisib; first compound 0.01 µM) | relative viability (Bosutinib + Pictilisib; first compound 0.03162 µM) | relative viability (Bosutinib + Pictilisib; first compound 0.1 µM) | relative viability (Bosutinib + Pictilisib; first compound 1 µM) | relative viability (Bosutinib + Alpelisib; first compound 0.01 µM) | relative viability (Bosutinib + Alpelisib; first compound 0.03162 µM) | relative viability (Bosutinib + Alpelisib; first compound 0.1 µM) | relative viability (Bosutinib + Alpelisib; first compound 1 µM) | relative viability (Bosutinib + Dasatinib; first compound 0.01 µM) | relative viability (Bosutinib + Dasatinib; first compound 0.03162 µM) | relative viability (Bosutinib + Dasatinib; first compound 0.1 µM) | relative viability (Bosutinib + Dasatinib; first compound 1 µM) | relative viability (Bosutinib + Phenformin; first compound 0.01 µM) | relative viability (Bosutinib + Phenformin; first compound 0.03162 µM) | relative viability (Bosutinib + Phenformin; first compound 0.1 µM) | relative viability (Bosutinib + Phenformin; first compound 1 µM)
1 | NCI-H1651 | 0.923 | 0.877 | 0.767 | 0.823 | 0.579 | 0.62 | 0.62 | 0.687 | 0.928 | 0.961 | 0.854 | 0.734 | 0.488 | 0.452 | 0.433 | 0.482 | 0.32 | 0.322 | 0.331 | 0.357
2 | NCI-H1666 | 0.705 | 0.592 | 0.656 | 0.757 | 0.469 | 0.32 | 0.417 | 0.405 | 0.982 | 0.947 | 1.07 | 0.865 | 0.75 | 0.834 | 0.814 | 0.808 | 0.536 | 0.545 | 0.552 | 0.597
3 | NCI-H1734 | 1.17 | 1.07 | 0.977 | 1.06 | 0.507 | 0.427 | 0.447 | 0.447 | 0.642 | 0.632 | 0.748 | 0.59 | 0.523 | 0.508 | 0.512 | 0.46 | 0.455 | 0.382 | 0.375 | 0.312
4 | NCI-H1755 | 1.03 | 1.11 | 1.06 | 0.915 | 0.45 | 0.497 | 0.509 | 0.287 | 0.916 | 0.961 | 0.998 | 0.739 | 0.427 | 0.476 | 0.438 | 0.433 | 0.635 | 0.682 | 0.659 | 0.588
5 | NCI-H1792 | 0.892 | 0.866 | 0.918 | 0.866 | 0.299 | 0.27 | 0.367 | 0.332 | 0.774 | 0.677 | 0.757 | 0.505 | 0.805 | 0.796 | 0.875 | 0.781 | 0.256 | 0.254 | 0.327 | 0.251
6 | NCI-H1793 | 0.864 | 0.839 | 0.438 | 0.497 | 0.394 | 0.321 | 0.383 | 0.292 | 0.669 | 0.603 | 0.711 | 0.49 | 0.465 | 0.392 | 0.391 | 0.347 | 0.431 | 0.387 | 0.364 | 0.242
7 | NCI-H1915 | 0.919 | 0.965 | 0.991 | 1.06 | 1.04 | 0.988 | 1.02 | 0.968 | 1.03 | 1.07 | 1.1 | 1.06 | 0.323 | 0.323 | 0.33 | 0.297 | 0.365 | 0.365 | 0.382 | 0.348
8 | NCI-H1944 | 0.834 | 0.803 | 0.865 | 0.736 | 0.35 | 0.327 | 0.333 | 0.345 | 0.849 | 0.826 | 0.826 | 0.614 | 0.216 | 0.2 | 0.209 | 0.208 | 0.203 | 0.193 | 0.202 | 0.186
9 | NCI-H1975 | 0.907 | 0.842 | 0.839 | 0.712 | 0.283 | 0.318 | 0.338 | 0.253 | 0.615 | 0.688 | 0.67 | 0.433 | 0.343 | 0.395 | 0.364 | 0.374 | 0.401 | 0.447 | 0.437 | 0.403
10 | NCI-H1993 | 0.814 | 0.85 | 0.947 | 0.835 | 0.827 | 0.896 | 0.967 | 0.741 | 0.635 | 0.69 | 0.641 | 0.669 | 0.492 | 0.63 | 0.589 | 0.622 | 0.513 | 0.511 | 0.492 | 0.59
11 | NCI-H2009 | 0.905 | 1.02 | 1.05 | 0.716 | 0.997 | 0.866 | 0.927 | 0.557 | 1.2 | 1.15 | 1.1 | 0.767 | 0.41 | 0.362 | 0.416 | 0.344 | 0.53 | 0.49 | 0.423 | 0.346
12 | NCI-H2023 | 0.967 | 0.819 | 0.787 | 0.793 | 0.25 | 0.235 | 0.272 | 0.233 | 0.581 | 0.655 | 0.538 | 0.426 | 0.683 | 0.599 | 0.65 | 0.583 | 0.415 | 0.4 | 0.376 | 0.295
13 | NCI-H2085 | 0.749 | 0.747 | 0.813 | 0.744 | 0.441 | 0.45 | 0.425 | 0.489 | 0.978 | 0.976 | 0.903 | 0.988 | 0.264 | 0.219 | 0.329 | 0.398 | 0.825 | 0.705 | 0.652 | 0.515
